From patent US5101072A, “Sulfonylhydrazines and their use as antineoplastic agents and as antitrypanosomal agents” (Yale University, priority 1989, dated 1992)
Blank lines part the entries; values can stand above or below the compound they belong to.

Key:
[1] = system: T. rhodesiense (Y Tat 1.1); experiment: Survival time of CD-1 mice infected with T. rhodesiense (trypanocidal activity); assay type: in vivo, T. rhodesiense (Y Tat 1.1); CD-1 mice; conditions: for Mean Extension of Life (Table III): administered in 0.05 ml of DMSO, dose not given
Description: The trypanocidal properties of several methylating agents including MeSO2 N(Me)N(SO2 Me)2 and MeSO2 N(Me)N(Me)SO2 Me were determined by measuring their effects on the survival time of CD-1 mice infected with T. rhodesiense (Y Tat 1.1), a pleimorphic strain that produces a non-relapsing disease in mice. The level of parasites in the bloodstream and body fluids increases by approximately 10-fold per day and the animals die when the parasite burden exceeds 1 to 2×10^9 cells/ml. Infection with a single viable parasite will kill a mouse in approximately 9 to 10 days.
Mice were infected ip with approximately 10^6 trypanosomes/mouse in phosphate buffered saline containing glucose. This level of parasites produces death in 4 days post-infection. These mice were treated (ip) with a single dose of drug dissolved in the appropriate vehicle 3 days after infection, when the parasitemia was 1 to 3×10^8 cells/ml of blood and the mice, if untreated, would survive for only 24 additional hours. The number of days the mice survived beyond that of the untreated controls was used as a measure of trypanocidal activity. The level of parasitemia in treated mice was measured at regular intervals to distinguish between parasite-related and drug toxicity-related deaths. No toxic deaths were observed. Mice that survived for 30 days without detectable parasitemias were considered cured. The effects of a single dose of various methylating agents on the survival time of trypanosome-bearing mice are summarized in Table II.
^a Drug that was administered was dissolved in 0.5 ml of phosphate
buffered saline containing glucose.
^b Drug that was administered was dissolved in 0.05 ml of DMSO.

[2] = Methanol generation in vitro (spontaneous breakdown to generate reactive methyl groups); assay type: physicochemical; conditions: for Relative Methanol Generation in vitro: PhSO2 N(Me)NHSO2 Ph = 1.0
Description: (§1) The reaction of 1,2-bis(sulfonyl)-1-methylhydrazine with water at pH 7.4-7.6 at 37° C. can be followed by proton release and/or methanol generation. Methanol generation can be assayed using alcohol oxidase and measuring the resultant O2 consumption using a Gilson oxygraph. This assay can be calibrated using methanol standards. The reaction of 1,2-bis(sulfonyl)-1-methylhydrazine with water is relatively fast [a 50 μM solution of 1,2-bis(methylsulfonyl)-1-methylhydrazine decomposes at an initial rate of 12-15% per minute in phosphate buffered saline (pH 7.6) at 37° C.] compared to the hydroylsis of 1,2,2-tris(methylsulfonyl)-1-methylhydrazine. RSO2 N=NMe may also decompose by a free radical mechanism to a smaller extent and methylate by the generation of methyl radicals.
Methanol was produced by these agents in aqueous solutions free from strong competing nucleophiles. Formation of this alcohol was used as a measure of the rate of spontaneous breakdown of these compounds to generate reactive methyl groups. […] These findings provide strong evidence that methylation is essential for the observed biological activity of these compounds.

[3] = system: T. rhodesiense; experiment: Oral trypanocidal activity (preliminary); assay type: in vivo, T. rhodesiense; mice; conditions: aqueous solutions, preliminary results
Source text: Orally active trypanocidal agents are desirable since, in areas where trypanosomiasis is endemic, other routes of drug administration frequently present problems.

[4] = system: L1210 leukemia; experiment: Survival time of mice bearing the L1210 leukemia; assay type: in vivo; conditions: for 60-day cures, % / % T/C (average survival time of treated/control animals × 100): L1210, at optimum effective daily dose, once daily × 6 days
Description: The tumor-inhibitory properties of several compounds, e.g., 1,2-bis(methylsulfonyl)-1-methylhydrazine, 1-methyl-1,2,2-tris(methylsulfonyl)hydrazine, 1,2-bis(methylsulfonyl)-1,2-dimethylhydrazine and 1-(2-chloroethyl)-1,2,2-tris(methylsulfonyl)hydrazine were determined by measuring the effects of these agents on the survival time of mice bearing the L1210 leukemia as described by K. Shyam, L. A. Cosby, and A. C. Sartorelli, J. Med. Chem., 28, 525-527 (1985).
^a Administered once daily for 6 consecutive days, beginning 24 hours
after tumor transplantation with 5-10 animals being used per group.
^b Average change in body weight from onset to termination of therapy
(§2) ^c % T/C = average survival time of treated/control animals ×

[5] = system: T. equiperdum; experiment: Activity against T. equiperdum
Description: (§3) A representative agent, 1,2-bis(methylsulfonyl)-1-methylhydrazine, was also tested against several other trypanosoma species.

[6] = system: I. brucei brucei; experiment: Activity against brucei brucei
Description: as §3

[7] = system: T. evansi; experiment: Activity against T. evansi
Description: as §3

[8] = Hydrolysis / decomposition in aqueous solution; assay type: physicochemical; conditions: for Initial rate of hydrolysis / decomposition: 50 μM solution, phosphate buffered saline (pH 7.6), 37° C.
Description: In the case of 1,2,2-tris(methylsulfonyl)-1-methylhydrazine, this reaction occurs slowly. A 50 μM solution of this compound hydrolyzes at an initial rate of 1% per minute in phosphate buffered saline (pH 7.6) at 37° C.
Hydrolysis is expected to occur preferentially at N-2 to generate the 1,2-bis(sulfonyl)-1-methylhydrazine. The sulfonic acid and 1,2-bis(sulfonyl)-1-methylhydrazine that are generated are both ionized under these conditions. The release of protons can be used to follow the decomposition of these and related compounds. The release of protons can be assayed by following the decrease in absorbance at 560 nm of a weakly buffered (1 mM potassium phosphate) phenol red (21 mg/l) solution; initial pH 7.6 at 37° C. The assay can be calibrated using HCl standards.
as §1

[9] = system: trypanosomes; experiment: Loss of antitrypanosomal activity upon aging of aqueous buffered solutions; assay type: in vivo; conditions: aqueous buffered (pH 7.6)
[10] = system: T. gambiense; experiment: Activity against T. gambiense
Description: as §3

[11] = Lethality in normal mice; assay type: in vivo
Description: A single intraperitoneal dose of 1.2 g/kg or six daily intraperitoneal doses of 200 mg/kg of MeSO2 N(CH2 CH2 Cl)N(SO2 Me)2 produced no lethality in normal mice. Thus, the relatively great efficacy of this compound against the L1210 and P-388 leukemias and its relative lack of toxicity makes it an agent of significant promise.

[12] = system: P388 leukemia; experiment: % T/C and 60-day cures vs. P388 leukemia; assay type: in vivo, mice; conditions: 60 mg/kg/day
Description: as §2
^d % T/C vs. P388 leukemia = 218 (80% 60day cures) at 60 mg/kg/day

[13] = system: early-stage sleeping sickness; conditions: man and animals; cited from earlier work
[14] = system: decarboxylated S-adenosylmethionine (DSAM) and S-adenosylmethionine (SAM); conditions: cited from earlier work
[15] = system: T. brucei; conditions: cited from earlier work
[16] = late-stage sleeping sickness; cited from earlier work
[17] = single ip dose 0.2 mmol/kg in 0.05 ml of DMSO
[18] = single ip dose 0.2 mmol/kg in 0.5 ml phosphate buffered saline containing glucose

Compound: CCOS(=O)(=O)OCC [Et2 SO4]
- Mean Extension of Life [1, 17]: 0 days

- Relative Methanol Generation in vitro [2]: 0
Compound: O=S(=O)(NNS(=O)(=O)c1ccccc1)c1ccccc1 [PhSO2 NHNHSO2 Ph]
- Mean Extension of Life (Table III) [1]: 0 days

Compound: CN(N=O)C(=O)N[C@H]1C(O)O[C@H](CO)[C@@H](O)[C@@H]1O (some centres unmarked) [Streptozotocin, streptozotocin]
- Mean Extension of Life [1, 18]: 4.3 days

Compound: CN(N(C)S(C)(=O)=O)S(C)(=O)=O [MeSO2 N(Me)N(Me)SO2 Me, 1,2-Bis(methylsulfonyl)-1,2-dimethylhydrazine]
- cure (30 days without detectable parasitemias) [1, 17]: 25%
- Mean Extension of Life for relapsing animals ([1]; single ip dose 0.2 mmol/kg in 0.05 ml of DMSO, relapsing animals): 9.7 days
- Trypanocidal activity on oral administration compared with Table II [3]: comparable activity to that reported in Table II
- 60-day cures, % [4]: 0%
- % T/C (average survival time of treated/control animals × 100) [4]: 158%
- AvΔ Wt, % (average change in body weight from onset to termination of therapy) ([4]; mouse, in vivo): -11.3%

Compound: CN(NS(C)(=O)=O)S(C)(=O)=O [MeSO2 N(Me)NHSO2 Me, 1,2-bis(methylsulfonyl)-1-methylhydrazine]
- Activity against T. equiperdum [5]: Activity has been demonstrated
- Activity against I. brucei brucei [6]: Activity has been demonstrated
- Mean Extension of Life [1, 17]: 11.8 days
- Activity against T. evansi [7]: Activity has been demonstrated
- Initial rate of hydrolysis / decomposition [8]: 12-15 % per minute
- Decomposition in aqueous solutions ([8]; acidified solutions): can be inhibited by dosing in acidified solutions
- Trypanocidal activity on oral administration compared with Table II [3]: comparable activity to that reported in Table II
- antitrypanosomal activity lost on aging ([9]; after 0 minutes of aging): 0%
- antitrypanosomal activity lost on aging ([9]; after 1 minute of aging): 21%
- antitrypanosomal activity lost on aging ([9]; after 5 minutes of aging): 73%
- antitrypanosomal activity lost on aging ([9]; after 15 minutes of aging): 97%
- 60-day cures, % [4]: 0%
- % T/C (average survival time of treated/control animals × 100) [4]: 180%
- AvΔ Wt, % (average change in body weight from onset to termination of therapy) ([4]; mouse, in vivo): -10.7%
- Activity against T. gambiense [10]: Activity has been demonstrated
- Time within which decomposition was complete (no further methanol generated) ([2]; aqueous buffered (pH 7.6) solution): ≤ 15 min

Compound: CNNC [MeNHNHMe, 1,2-dimethylhydrazine]
- Mean Extension of Life [1, 18]: 4.3 days

- Relative Methanol Generation in vitro [2]: 0
Compound: CN(NC(=O)c1ccccc1)C(=O)c1ccccc1 [PhCON(Me)NHCOPh]
- Mean Extension of Life (Table III) [1]: 0 days

- Relative Methanol Generation in vitro [2]: 1.0
Compound: CN(NS(=O)(=O)c1ccccc1)S(=O)(=O)c1ccccc1 [PhSO2 N(Me)NHSO2 Ph]
- Mean Extension of Life (Table III) [1]: 5 days
- Mean Extension of Life [1, 17]: 5.0 days

Compound: CS(=O)(=O)N(CCCl)N(S(C)(=O)=O)S(C)(=O)=O [MeSO2 N(CH2 CH2 Cl)N(SO2 Me)2, 1-(2-chloroethyl)-1,2,2-tris(methylsulfonyl)hydrazine]
- Lethality in normal mice ([11]; single intraperitoneal dose of 1.2 g/kg): no lethality
- Lethality in normal mice ([11]; six daily intraperitoneal doses of 200 mg/kg): no lethality
- 60-day "cures" of the L1210 leukemia ([4]; 40 and 60 mg/kg per day×6): 60-day "cures" of the L1210 leukemia
- 60-day cures, % [4]: 100%
- AvΔ Wt, % (average change in body weight from onset to termination of therapy) ([4]; mice bearing L1210, at optimum effective daily dose): -7.2%
- Activity against the L1210 leukemia (in words) ([4]; mouse, in vivo): exceedingly active
- 60-day cures vs. P388 leukemia [12]: 80%
- % T/C vs. P388 leukemia [12]: 218%

Compound: NCCC[C@](N)(C(=O)O)C(F)F [DFMO, alpha-difluoromethylornithine]
- Efficacy against early-stage sleeping sickness [13]: effective against early-stage sleeping sickness
- increase in decarboxylated S-adenosylmethionine (DSAM) and S-adenosylmethionine (SAM) [14]: 1000 fold
- Induction of differentiation in T. brucei [15]: induce differentiation in T. brucei

Compound: CN(N(S(C)(=O)=O)S(C)(=O)=O)S(C)(=O)=O [MeSO2 N(Me)N(SO2 Me)2, 1-Methyl-1,2,2-tris(methylsulfonyl)hydrazine]
- Mean Extension of Life [1, 17]: 7.7 days
- cure (30 days without detectable parasitemias) ([1]; single ip dose 1.0 mmol/kg in 0.05 ml of DMSO): 100%
- Initial rate of hydrolysis / decomposition [8]: 1 % per minute
- Trypanocidal activity on oral administration compared with Table II [3]: comparable activity to that reported in Table II
- 60-day cures, % [4]: 0%
- % T/C (average survival time of treated/control animals × 100) [4]: 186%
- AvΔ Wt, % (average change in body weight from onset to termination of therapy) ([4]; mouse, in vivo): -7.7%

Compound: COc1ccc(S(=O)(=O)NN(C)S(C)(=O)=O)cc1 [MeSO2 N(Me)NHSO2 C6 H4 -p-OMe]
- Mean Extension of Life [1, 17]: 4.5 days

Compound: COS(C)(=O)=O [MeSO2 OMe]
- Mean Extension of Life [1, 17]: 1.0 days

Compound: CN(C)N=Nc1[nH]cnc1C(N)=O [DTIC, 5-(3,3-dimethyl-1-triazenyl)-1H-imidazole-4-carboxamide]
- Mean Extension of Life [1, 18]: 6.0 days

Compound: CCNNCC [EtNHNHEt]
- Mean Extension of Life [1, 18]: 0 days

Compound: CNN [MeNHNH2, methylhydrazine]
- Mean Extension of Life ([1]; single ip dose 0.5 mmol/kg in 0.5 ml phosphate buffered saline containing glucose): 1 days

Compound: CNNCc1ccc(C(=O)NC(C)C)cc1 [Procarbazine, procarbazine]
- Mean Extension of Life [1, 18]: 5.0 days

Compound: COS(=O)(=O)OC [Me2 SO4]
- Mean Extension of Life [1, 17]: 3.0 days

Compound: CN(N=O)C(N)=O [N-Methyl-N-nitrosourea]
- Mean Extension of Life [1, 17]: 8.0 days

Compound: Nc1nc(N)nc(Nc2ccc([As]3SCC(CO)S3)cc2)n1 (centres unmarked) [melarsoprol]
- patients die due to drug toxicity [16]: up to 5%
